Patent US20190350955A1, “METHODS AND PHARMACEUTICAL COMPOSITIONS FOR THE TREATMENT OF CARDIOMYOPATHIES” (INSERM (Institut National de la Sante et de la Recherche …, priority 2016, published 2019)

Experiments:
Nmrk2 promoter = Nmrk2 promoter luciferase reporter assay in NRC; format: cell-based, rat; settings: for Nmrk2 promoter induction by AICAR: NRC, p3009-Luc, antagonist added 30 minutes before AICAR for 24 h; for activity of the Nmrk2 promoter (p3009-Luc): NRC co-transfected with PPARα and RXR expression vectors
Procedure: Isolation and Treatments of Neonatal Rat Cardiomyocytes (NRC) NRC were isolated as described previously (Diguet et al., 2011). 1-day-old rat pups were killed by decapitation and the cardiac ventricles were harvested and minced into 1 to 2-mm wide cubes with scissors. After washing with Tyrode solution, heart fragments were subjected up to 10 rounds of digestion with 0.05 mg/ml of Liberase Blendzyme 4 (Roche Applied Science) in 10 ml oxygenated Tyrode solution under agitation at 37° C. for 10 minutes. The supernatant of the first digestion was discarded and the following digestions were centrifuged and the cell pellet dissociated in 2 ml of DMEM, 10% FCS. The different fractions were pooled and centrifuged on a discontinuous Percoll gradient (bottom 58.5%. top 40.5%. 30 min. 3000 rpm) to enrich in cardiomyocytes at the interface between the 2 Percoll solutions. Non cardiac cells containing mainly fibroblasts were at the top of the tubes. Neonatal cardiomyocytes were seeded at a density 5×10^5 cells/well in 6-well plates coated with 10 μg/ml of laminin (BD Biosciences) in DMEM without pyruvate, with glucose 4.5 g/l, 10% horse serum, 5% FCS and cultured at 37° C. in 1% CO, atmosphere. To assay the impact on NAD^+ and Nmrk2 expression, Azaserin and FK866 drugs were added in the culture medium at day 5 and renewed everyday when the treatment was prolonged over several days. The same was done for NAD^+, NR and AICAR (5-aminoimidazole-4-carboxamide-1-β-D-ribofuranoside). AICAR was administrated for 24 h only. Doses are indicated in the legends. For treatment of transfected cells (see next section), AICAR, FK866 and PPAR agonists and antagonist were administrated 1 day after transfection. PPAR agonists: GW7647 for PPARα, GW501516 for PPARβ/δ and GW1929 for PPARγ; PPAR antagonists: GW6471 PPARα, GSK3787 for PPARβ/δ and GW9662 for PPARγ were ordered from SIGMA ALDRICH CHIMIE, Saint Quentin Fallavier, France.
The transcription initiation site of mouse Nmrk2 promoter was determined by 5′RACE and was conform to the reported site in the Genebank (NM_027120.2). The promoter of the mouse Nmrk2 gene was cloned from C57B16/N genomic DNA by PCR, and inserted into a pGL4.10[luc2] luciferase reporter plasmid (Promega prod no E6651). Subsequent deletions were performed by enzymatic digestion or primer mediated subcloning of the original fragment. 2.5×10^5 cardiomyocytes in 12-well plates were co-transfected at day 2 of culture with 1 μg of Nmrk2 pGL4.10[luc2] constructs and 100 ng of pGL4.73[hRluc/SV40] Vector (Promega prod no E6911) as an internal control of transfection efficiency using Lipofectamine 2000 (Lifetechnology) as indicated by the supplier. In the case of AICAR treatment, Luciferase activity was analyzed 48 h later with the Dual-Luciferase Assay System (Promega).
The pcDNA3 vectors harboring dominant negative AMPK, PPARα, PPARβ and PPARγ as well as RXR genes were kindly provided by Pr. Michel Raymondjean (El Hadri et al. (2015). AMPK Signaling Involvement for the Repression of the IL-1beta-Induced Group IIA Secretory Phospholipase A2 Expression in VSMCs. Journal 10, e0132498; Ravaux et al. (2007). Inhibition of interleukin-1 beta-induced group 11A secretory phospholipase A2 expression by peroxisome proliferator-activated receptors (PPARs) in rat vascular smooth muscle cells: cooperation between PPARbeta and the proto-oncogene BCL-6. Journal 27, 8374-8387; Woods et al. (2000). Characterization of the role of AMP-activated protein kinase in the regulation of glucose-activated gene expression using constitutively active and dominant negative forms of the kinase. Journal 20, 6704-6711). These vectors were cotransfected at a dose of 100 ng/well in 24-well plates with 500 ng of Nmrk2 luciferase constructs.

SRF^HKO hearts = assay: Transcriptomic analysis of SRF HKO hearts after phenylephrine administration; format: in vivo, mouse
Excerpt: (§1) Transgenic mice. All experiments with animals conformed to the Directive 2010/63/EU of the European Parliament and were approved by the ethics committee Charles Darvin #5 (agreement 00369.01). SRF^HKO mice bear the tamoxifen-inducible α-MHC-MerCrMer transgene and the Siffloxed allele (Sf/Sf) as described previously (Parlakian et al. (2005). Temporally controlled onset of dilated cardiomyopathy through disruption of the SRF gene in adult heart. Journal 112, 2930-2939; Tritsch et al. (2013). An SRF/miR-1 axis regulates NCX1 and Annexin A5 protein levels in the normal and failing heart. Journal 98, 372-380). Transgenic mice have been bred for more than 20 generations in C57BL/6N background. The mice were housed in standard animal facility (CEF. Hôpital Pitié Salpétrière, agreement A-75-13-15, 75013 Paris), under a 12-h dark/light cycle. Tamoxifen (Sigma T5648) was administrated by i.p. injection at a dose of 0.7 mg diluted in 100 μl peanut oil at day (D) 0, D1 and D2. (Sf/Sf) littermates injected with tamoxifen at the same time than mutant were used as controls.
(§2) The series of mice treated with PE and the impact of the treatment on cardiac parameters have been published previously (Tritsch et al. (2013). An SRF/miR-1 axis regulates NCX1 and Annexin A5 protein levels in the normal and failing heart. Journal 98, 372-380). Briefly. […]

control hearts = assay: Transcriptomic analysis of control hearts after phenylephrine administration; format: in vivo, mouse; settings: PE 80 mg/kg/day for 15 days
Excerpt: as §1, §2

Lmna^H222P/H222P mice [1] = assay: NAD+ content quantification in heart and liver of treated Lmna H222P/H222P mice; format: in vivo, mouse; settings: NAM 500 mg/kg/q.a.d. IP, from 17 weeks of age for 9 weeks, vs placebo
Procedure: Mice were bred in an accredited animal facility (accreditation number: C-75-13-08). All experiments on mice were approved by the Comité d'éthique en expérimentation animate Charles Darwin No 5. Mice Lmna^H222P/H222P were backcrossed 8 times to 129S2/SvPasOrlRj strain mice to obtain pure genetic background. Male mice used for the studies were maintained under a 12 h light/12 h dark cycle at constant temperature (23° C.) with free access to food and water. Nicotinamide riboside (NR) complementation: Animals at 17 weeks of age were fed for 9 weeks with either a chow diet (A04: Scientific Animal Food & Engineering) or a chow diet complemented with 0.25% of NR (kindly provided by ChromaDex, Inc. California) corresponding to a dose of 400 mg/kg/day for a mouse weighing 25 g eating 4 g of food per day. […]
Fresh mouse tissues were homogenized and processed according to previous report (Sander B J, Oelshlegel F J & Brewer G J (1976) Quantitative analysis of pyridine nucleotides in red blood cells: a single-step extraction procedure. Anal. Biochem. 71: 29-36). The concentration of NAD+ in heart tissue was determined using a spectrophotometric assay at 550 nm based on an alcohol dehydrogenase cycling reaction, in which a Methyl Thiazolyl Tetrazolium (MTT) is reduced to Formazan. […]

Lmna^H222P/H222P mice [2] = assay: qPCR of cardiac remodeling markers Myh7, Nppa, Col1a2 in heart; format: in vivo, mouse; settings: NAM 500 mg/kg/q.a.d. IP, 9 weeks
Procedure: (§3) Mice were bred in an accredited animal facility (accreditation number: C-75-13-08). All experiments on mice were approved by the Comité d'éthique en expérimentation animate Charles Darwin No 5. Mice Lmna^H222P/H222P were backcrossed 8 times to 129S2/SvPasOrlRj strain mice to obtain pure genetic background. Male mice used for the studies were maintained under a 12 h light/12 h dark cycle at constant temperature (23° C.) with free access to food and water. Nicotinamide riboside (NR) complementation: Animals at 17 weeks of age were fed for 9 weeks with either a chow diet (A04: Scientific Animal Food & Engineering) or a chow diet complemented with 0.25% of NR (kindly provided by ChromaDex, Inc. California) corresponding to a dose of 400 mg/kg/day for a mouse weighing 25 g eating 4 g of food per day. Nicotinamide (NAM) treatment: Animals at 17 weeks of age were injected intraperitoneally (IP) every two days (q.a.d.) for 9 weeks with either physiologic serum or physiologic serum added with NAM at 50 mg/ml corresponding to a dose of 500 mg/kg for a mouse weighing 25 g.
Total RNAs were extracted from around 5 mg of mouse heart using RNeasy Mini kit (Qiagen). RNAs integrity were controlled on the Bioanalyzer 2100 (Agilent). […] Relative mRNA transcript levels calculated using the 2^ΔCT method were normalized by comparison to housekeeping mRNA.

Lmna^H222P/H222P mice [3] = assay: Echocardiography and heart size in treated Lmna H222P/H222P mice; format: in vivo, mouse; settings: NAM 500 mg/kg/q.a.d. IP, 9 weeks, vs placebo
Procedure: as §3
Mouse transthoracic echocardiography was performed using an ACUSON 128XP/10 ultrasound with a 11 Mhz linear probe (Mountain View).MHz transducer applied to the chest wall. Mice were maintained under anesthetized with 0.75% isoflurane anaesthesia (0.75% in O2) and placed on a heating pad (25° C.). Left ventricular (LV) parameters were obtained from M-mode recordings in a modified short axis view. The intra ventricular septum (IVS), LV posterior wall (LVPW), LV diameter (LVD) in diastole and systole, the percentage of fractional shortening (FS) and the heart rate (HR) were measured from the mean of at least three separate cardiac cycles. A “blinded” echocardiographer, unaware of the genotype and the treatment, performed the examinations.

SRF^HKO mice = assay: RT-qPCR gene expression in SRF HKO heart; format: in vivo, mouse; settings: i.p. administration from D8 to D15
Excerpt: as §1
Nicotinamide and nicotinamide riboside i.p. administration. Nicotinamide was diluted in saline at 300 mM. Nicotinamide riboside (NR) bromide salt stock solution (1M) was in 10 mM citric acid pH 6.0. For injection 3 volumes of NR stock solution was mixed extemporaneously with 7 volumes of PBS to obtain a 300 mM injectable solution at pH 7.2. Mice were injected daily at a dose of 1 μmole/g body weight.
SRF^HKO and control (Sf/Sf) mice were administered either rodent maintenance SAFE A04 diet containing 3.10% crude fat. 16.10% crude proteins. 26% starch and 1.9% sugar (Scientific Animal Food Engineering, Paris, France) or SAFE # A04 diet supplemented with NR. NR was provided by Chromadex under brand name NIAGEN (Irvine Calif. USA). The soft pellets were manually prepared every 5 days by mixing 1.65 g of NR into 500 g of powdered SAFE A04 diet and 235 ml of water to reach 2.24 mg of NR/g (wet weight). Control diet was prepared in the same way omitting NR. Mice had ad libitum access to food and water. Mice (average body weight 31.3±0.82 g, no difference between groups) consumed an average of 6 g of soft food per day, reaching a daily intake of 450 mg NR/kg. No difference in food intake was observed between SRF^HKO and control mice.
cDNAs were reverse transcribed from RNA (1.5 μg) extracted in TRIzol (Thermofisher) from cell cultures and tissues using the Superscript II Reverse Transcriptase (Life Technologies). Quantitative PCR was carried out on a Light Cycler 480 (Roche Diagnostics) using Fast Start SYBR Green Master (Roche Diagnostics). Quantification of gene expression was calculated as R=2^ΔCt(Ref Cp−target Cp), with Hprt used as a as reference. Primers were designed using the NCBI Primer-BLAST software. Primer sequences are available on request.

Structure (SMILES): O=C(Nc1ccccc1)c1cc([N+](=O)[O-])ccc1Cl [G9662]
- Nmrk2 promoter induction by AICAR (Nmrk2 promoter): Neither the PPARβ antagonist GSK3787 nor the PPARγ antagonist G9662 had any effect

Structure (SMILES): CNC[C@H](O)c1cccc(O)c1 [PE, phenylephrin]
- Nmrk2 expression (SRF^HKO hearts; PE 80 mg/kg/day for 15 days, SRF HKO hearts): 57 fold
- Nampt and Pnp expression (SRF^HKO hearts; PE treatment): depressed
- Nmrk2 expression (control hearts): 4 fold

Structure (SMILES): CCC(=O)NC[C@H](Cc1ccc(OCCc2nc(-c3ccccc3)oc2C)cc1)N/C(C)=C\C(=O)c1ccc(C(F)(F)F)cc1 [G6471]
- activity of the Nmrk2 promoter (p3009-Luc) (Nmrk2 promoter; antagonist 10 μM): repressed
- Nmrk2 promoter induction by AICAR (Nmrk2 promoter): blunted

Structure (SMILES): NC(=O)c1cccnc1 [NAM, Nicotinamide]
- NAD+ content in liver and heart (Lmna^H222P/H222P mice [1]): did not exhibit any changes
- expression of Myh7, Nppa and Col1a2 (Lmna^H222P/H222P mice [2]): no changed expression
- cardiac contractility (Lmna^H222P/H222P mice [3]): no significant changes
- left-ventricular end diastolic diameter (Lmna^H222P/H222P mice [3]): no significant changes
- left-ventricular end systolic diameter (Lmna^H222P/H222P mice [3]): no significant changes
- Srf and Nmrk2 expression levels (SRF^HKO mice): not changed

Structure (SMILES): CC(C)(Sc1ccc(CCN(CCCCC2CCCCC2)C(=O)NC2CCCCC2)cc1)C(=O)O [GW7647]
- activity of the Nmrk2 promoter (p3009-Luc) (Nmrk2 promoter; agonist 0.6 μM): increased

Structure (SMILES): O=C(NCCS(=O)(=O)c1ccc(C(F)(F)F)cn1)c1ccc(Cl)cc1 [GSK3787]
- Nmrk2 promoter induction by AICAR (Nmrk2 promoter): Neither the PPARβ antagonist GSK3787 nor the PPARγ antagonist G9662 had any effect
